Assay results as given in US8221993B2, “Methods of detecting methyl transferase activity and methods of screening for methyl transferase activity modulators” (Onco Therapy Science, Inc., priority 2004, dated 2012).

How the values were obtained:
Format in all cases: biochemical
[1] = biological target: T1, ZNFN3A1 (Homo sapiens, UniProt Q9H7B4, K13N); experiment: In vitro histone H3-K4 methyltransferase assay, peptide competition; parameters: made in house; host or cells: transfected mammalian cells (293T), anti-Flag immunoprecipitate; details: recombinant histone H3, SAM and HSP90A, addition of competitor peptide, FIG. 2b
T1 sequence (Q9H7B4 1-428 K13N): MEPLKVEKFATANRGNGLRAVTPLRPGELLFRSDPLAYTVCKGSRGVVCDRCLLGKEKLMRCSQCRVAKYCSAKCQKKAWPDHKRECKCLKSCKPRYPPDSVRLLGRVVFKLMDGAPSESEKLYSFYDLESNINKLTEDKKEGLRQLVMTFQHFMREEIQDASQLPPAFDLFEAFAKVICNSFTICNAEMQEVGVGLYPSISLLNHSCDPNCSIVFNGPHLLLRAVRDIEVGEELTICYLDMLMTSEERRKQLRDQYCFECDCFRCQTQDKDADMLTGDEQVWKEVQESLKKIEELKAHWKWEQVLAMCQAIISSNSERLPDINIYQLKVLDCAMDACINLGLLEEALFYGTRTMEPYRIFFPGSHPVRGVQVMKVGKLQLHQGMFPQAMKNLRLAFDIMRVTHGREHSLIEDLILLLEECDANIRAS
Method: H3-K4 specific methyltransferase activity was examined by western blot analysis of recombinant Xenopus H3 protein (UBI) incubated with the immunoprecipitants in the presence of 20 μM unlabeled S-adenosyl-L-methionine (SAM) and 2 μg of HSP90A for 1 hr at 30° C., using antibodies against mono-methylated (Abcam; ab8895), di-methylated (Abcam; ab7766), tri-methylated (Abcam; ab8580) H3-K4, total H3 (Abcam; ab1791), or tri-methylated H3-K9 (UBI; 07523). Lysates of cells transfected with plasmid expressing Flag-tagged wild-type ZNFN3A1, mutant ZNFN3A1, SET7/9, SUV39H1, or mock were immunoprecipitated with anti-Flag antibody (Sigma). Peptides to di-methylated H3-K4 (Abcam; ab7768, ARTK-Me2-QTAR-GGC) and di-methylated H3-K9 (Abcam; ab1772, QTARK-Me2-ST-GGC) were used for competition assay. Recombinant ZNFN3A1 was expressed in E. coli bacteria with plasmids expressing GST-fused ZNFN3A1 or in Sf9 cells with plasmids expressing HA-tagged ZNFN3A1. H3-methyltransferase activity was also analyzed in the presence or absence of 0.04 U SAHH (Sigma) using immunoprecipitated ZNFN3A1 protein or recombinant ZNFN3A1 purified from Sf9 cells.
Since proteins containing SET domain play a crucial role in methylation of histone H3 lysine 4 (H3-K4) or lysine 9 (H3-K9), we investigated whether ZNFN3A1 has an ability to methylate H3-K4 or H3-K9. […]

[2] = biological target: T1, ZNFN3A1; experiment: In vitro HMTase assay of SET domain of ZNFN3A1 with/without recombinant HSP90A; parameters: made in house; host or cells: transfected mammalian cells (293T), anti-Flag immunoprecipitate; details: wild-type SET of ZNFN3A1, SAM and histones, with recombinant HSP90A, FIG. 1c lane 4 and 5
Method: (§1) 293T cells were transfected with plasmid expressing Flag-tagged ZNFN3A1 (pFLAG-CMV-ZNFN3A1), SET7 protein or mock, and purified tagged proteins by immunoprecipitation with anti-Flag antibody. In vitro HMTase assay was performed according to the protocol (1) with a slight modification. Briefly, immunoprecipitated protein was incubated with 25 μg of free histones (mixture of H3, H2B, H2A and H4; Roche) as substrates and 2.5 μCi S-adenosyl-L-[methyl-^3H] methionine as methyl donor in a mixture of 40 μl of methylase activity buffer (50 mM Tris-HCl pH 8.5, 20 mM KCl, 10 mM MgCl2, 10 mM β-mercaptoethanol, 250 mM sucrose), for 60 min at 37° C. […]
Proteins containing the wild-type SET domain of ZNFN3A1 and two forms of mutant protein that lacked one of the two regions were prepared, and cross-linked equal amount of each protein with [^3H]-labeled SAM by exposure to UV-radiation. […] The wild-type SET or control recombinant protein of SET7 was further incubated with [^3H]-labeled SAM and a mixture of histones as substrates, and labeled protein after the separation on SDS-PAGE was measured. As expected, a strong band corresponding to [^3H]-labeled histone H3 protein by the control SET7 (FIG. 1c, lane 3) was detected. When substrates were incubated with the wild-type SET of ZNFN3A1, a faint band corresponding to labeled histone H3 was detected, which was not observed with mock (FIG. 1c, lane 1 and 2). […]

[3] = biological target: T1, ZNFN3A1; experiment: In vitro histone H3 methyltransferase activity in the presence or absence of SAHH; parameters: made in house; host or cells: 293T cells transfected with pFLAG-CMV-ZNFN3A1, anti-Flag immunoprecipitate; details: presence versus absence of SAHH, FIG. 3d
Method: as §1
H3-K4 specific methyltransferase activity was examined by western blot analysis of recombinant Xenopus H3 protein (UBI) incubated with the immunoprecipitants in the presence of 20 μM unlabeled S-adenosyl-L-methionine (SAM) and 2 μg of HSP90A for 1 hr at 30° C., using antibodies against mono-methylated (Abcam; ab8895), di-methylated (Abcam; ab7766), tri-methylated (Abcam; ab8580) H3-K4, total H3 (Abcam; ab1791), or tri-methylated H3-K9 (UBI; 07523). […] H3-methyltransferase activity was also analyzed in the presence or absence of 0.04 U SAHH (Sigma) using immunoprecipitated ZNFN3A1 protein or recombinant ZNFN3A1 purified from Sf9 cells. […]

Row | Substance | di- and tri-methylation of H3-K4 by wild-type ZNFN3A1 [1] | other results
1 | ARTK-Me2-QTAR-GGC [di-methylated H3-K4 peptides] | completely inhibited | 
2 | HSP90A: recombinant 90-kD heat shock protein, interacting protein of ZNFN3A1 |  | methyl transferase activity onto histone H3 [2]: enhanced methyl transferase activity
3 | QTARK-Me2-ST-GGC [di-methylated H3-K9 peptides] | unaffected | 
4 | S-adenosyl homocysteine hydrolase [SAHH] |  | H3 methyltransferase activity of Flag-tagged ZNFN3A1 [3]: significantly higher
